In data set [1] the test system is carriers on the epithelial cells of the small intestines. Conditions: cefadroxil concomitantly administered with cefalexine; cited from earlier work.
The conditions of data set [2]: with administration of cimetidine, concomitant use with ketoconazole; cited from earlier work.
The subject of data set [3] is CYP3A4. In words: Test Example 2: midazolam plasma AUC in dogs, alone or with concomitant conivaptan. Conditions: male, beagle, dog, po, 4 mg/dog.
Method: The following experiments were conducted using midazolam, which is metabolized CYP3A4, as a concomitant drug of conivaptan hydrochloride.
(§1) (1) Aqueous solution for oral administration containing midazolam: After preparing commercial midazolam injectable liquid (brand name: Dormicum® injection) to a concentration of 0.2 mg/ml with aqueous hydrochloric acid solution (pH of 3), HPMC2910 was added at 3-times the amount of midazolam to obtain a liquid for oral administration.
After administration, blood was collected from the veins of the front legs and the plasma concentration of midazolam was determined by the HPLC/UV method over time.
Thirty minutes after administration the aqueous solution for oral administration containing midazolam was orally administered using a catheter for oral administration (4 mg/dog). After midazolam administration, blood was collected from the veins of the front legs and the plasma concentration of midazolam was determined by the HPLC/UV method over time.
Thirty minutes after administration an aqueous solution for oral administration containing midazolam (4 mg/dog) was orally administered using a catheter for oral administration. After midazolam administration, blood was collected from the veins of the front legs and the plasma concentration of midazolam was determined by the HPLC/UV method over time.
The subject of data set [4] is CYP3A4. The data set can be described thus: Test Example 4: midazolam plasma AUC in dogs, alone or with concomitant ketoconazole. The following applies: male, beagle, dog, po, 4 mg/dog.
Method: as §1
The aqueous solution for oral administration containing midazolam was orally administered(4 mg/dog) using a catheter for oral administration to male beagle dogs (n=2) that had been fasted for approximately 20 hours.
Data set [5] concerns CYP3A4. The data set can be described thus: Test Example 3: midazolam plasma AUC in dogs, alone or with concomitant diltiazem. Conditions: male, beagle, dog, po, 4 mg/dog.
Method: The aqueous solution for oral administration containing midazolam was orally administered (4 mg/dog) using a catheter for oral administration to a male beagle dogs (n=3) that had been fasted for approximately 20 hours.

The structures appear in SMILES notation.

Turning to `CC1=C(C(=O)O)N2C(=O)[C@@H](NC(=O)[C@H](N)c3ccc(O)cc3)[C@H]2SC1` [cefadroxil], the “change in cefadroxil plasma concentration” value in data set [1] is listed as “reduction by approximately half”. Consider `CN/C(=N/CCSCc1nc[nH]c1C)NC#N` [cimetidine], for which the “gastric pH” value in data set [2] is given as 3 to 5. As to `Cc1ncc2n1-c1ccc(Cl)cc1C(c1ccccc1F)=NC2` [midazolam], the AUC (in general, the area under the concentration-time curve, a measure of exposure) in data set [3] stood at 9 ± 6 ng·h/mL; in data set [4], 68.7 ng·h/mL; in data set [5] it was 55 ng·h/mL.
